Laboratory results as given in patent US7078554B2, “Detection of glucose in solutions also containing an alpha-hydroxy acid or a beta-diketone” (Sensors for Medicine and Science, Inc., priority 2001, dated 2006).

Columns and labels:
[1] = Effect of lactate in solution on the dose response effect of glucose on fluorescence; settings: 75 μM in PBS, 0–10 mM glucose with 0, 2 or 5 mM lactate, excitation 365 nm (FIG. 3)
Procedure: Spectra were recorded using a Shimadzu RF-5301 spectrafluorometer with excitation @365 nm; excitation slits at 1.5 nm; emission slits at 1.5 nm; ambient temperature. All points measured in triplicate, with ±1 SD error bars included.
(§1) The hydrogel film (100 μm thickness, 8 mm diameter disk) was mounted in a PMMA cuvette at a 45° angle. All measurements were made at 37° C. in a Shimadzu RF-5301 spectrofluorometer with excitation at 370 nm (slit=3 nm) and emission at 430 nm (slit=3 nm) at low PMT sensitivity. Glucose and L-sodium lactate concentrations were checked using the YSI Model 2300 STAT plus glucose analyzer. Error bars are standard deviation with triplicate values for each data point.
as §1, with “The data is plotted as the average of” for “Error bars are standard deviation with”

[2] = Solubility; assay type: physicochemical; settings: solvents in which soluble
[3] = Modulation of fluorescence with lactate
[4] = Modulation of fluorescence with glucose
[5] = aqueous association with glucose; cited from earlier work

O=C(O)CCN(Cc1ccccc1B(O)O)Cc1c2ccccc2c(CN(CCC(=O)O)Cc2ccccc2B(O)O)c2ccccc12 [9,10-bis[N-(2-boronobenzyl)-N-[2-(carboxyethyl)amino]-methyl]anthracene]
effect of lactate on the fluorescence modulation (at 428 nm) by glucose [1]: did not substantially affect

C=C(C)C(=O)NCCCN(Cc1ccccc1B1OC(C)(C)C(C)(C)O1)Cc1c2ccccc2c(CN(CCC(=O)NCCCCCCNC(=O)c2c3ccccc3cc3ccccc23)Cc2ccccc2B2OC(C)(C)C(C)(C)O2)c2ccccc12 [Example 13]
Solubility [2]: PBS/methanol, methanol, ethanol, chloroform, dichloromethane

N-2-[6-N-(N-4-dimethylaminobenzyl)-6-N-[2-(borono)benzyl]aminohexyl]-[2-(borono)benzyl]amino-ethyl-4-butylamino-1,8-naphthalimide [Example 5]
normalized fluorescence emission (I/Io @ 535 nm), effect of lactate ([3]; 0.015 mM in 70/30 MeOH/PBS, 0–20 mM lactate, excitation 450 nm (FIG. 5)): not substantially affected by the presence of lactate
normalized fluorescence emission (I/Io @ 535 nm), effect of glucose ([4]; 0.015 mM in 70/30 MeOH/PBS, 0–20 mM glucose, excitation 450 nm (FIG. 5)): affected by the presence of glucose

C=C(C)C(=O)NCCCN(Cc1ccccc1B(O)O)Cc1c2ccccc2c(CN(CCC(=O)O)Cc2ccccc2B(O)O)c2ccccc12 [Example 12, 9-[N-(2-boronobenzyl)-N-[3-(methacrylamido)propylamino]methyl]-10-[N-(2-boronobenzyl)-N-[2-(carboxyethyl)amino]methyl]anthracene]
Solubility [2]: PBS/methanol, methanol, ethanol, chloroform, dichloromethane

OB(O)c1ccccc1 [phenylboronic acid]
Kd [5]: 9.1 mM

CN(CCNc1ccc2c3c(cccc13)C(=O)N(CCNC(=O)c1cc(B(O)O)cc([N+](=O)[O-])c1)C2=O)Cc1ccccc1B(O)O [Example 10, N-(3-Borono-5-nitrobenzamido)ethyl-4-(N′-aminoethylene-N″-[2-(borono)benzyl]methylamino)naphthalene-1,8-dicarboximide]
normalized fluorescence emission (I/I0 at 530 nm), effect of lactate ([3]; in MeOH/PBS (50/50 vol. %), pH 7.4, 0–7 mM L-sodium lactate, excitation 430 nm (FIG. 13)): not by the presence of lactate
normalized fluorescence emission (I/I0 at 525 nm), effect of glucose ([4]; in MeOH/PBS (50/50 vol. %), pH 7.4, 0–50 mM glucose, excitation 430 nm (FIG. 12)): affected by the presence of glucose
